Key:
Format in all cases: cell-based
[1] = tested on: DU145 prostate cancer cells; assay: Colony formation (clonogenic) assay; conditions: DU145, 2 μM, 10 day period
Description: (§1) Prostate cancer cells (1000) were seeded in 2 mL media in 6-well plates and allowed 2-3 days to attach and initiate the colony formations. […] The plates were then washed twice with PBS, fixed in chilled methanol, stained with hematoxylin (Fisher Scientific, Fair Lawn, N.J., USA), washed with water and air dried. The number of colonies was counted by a MultiImage™ Cabinet (Alpha Innotech Corporation, San Leandro, Calif., USA) using AlphaEase Fc software. The percent of colonies was calculated using the number of colonies formed in treatment divided by number of colonies formed in DMSO or CD in PBS controls.

[2] = tested on: C4-2 prostate cancer cells; assay: Colony formation (clonogenic) assay; conditions: C4-2, 2 μM, 10 day period
Description: as §1

[3] = tested on: DU145 prostate cancer cells; assay: In vitro cytotoxicity / cell proliferation (MTS assay); conditions: Homo sapiens, DU-145, 48 h, DU145, 2 days, read-out: IC50 (concentration of drug required to kill 50% of cells)
Description: (§2) To examine the anti-cancer activity of the CD-CUR inclusion complex (CD-30), cell proliferation assays were performed using C4-2 and DU145 prostate cancer cell lines. Prostate cancer cells (5000 cells/well in 100 μL media) were seeded in 96-well plates and allowed to attach overnight. […] Media containing equivalent amounts of CD in PBS or DMSO was used as the control. […] The reagent (25 μL/well) was added to each well and plates were incubated for 3 hrs at 37° C. The color intensity was measured at 492 nm using a microplate reader (BioMate 3 UV-Vis spectrophotometer, Thermo Electron Corporation, Hudson, N.H.). […] Just before adding MTS reagents, representative phase contrast microscope images of cells were taken using an Olympus BX 41 microscope (Olympus, Center Valley, Pa., USA).

[4] = tested on: C4-2 prostate cancer cells; assay: as above; conditions: 48 h, C4-2, 2 days, read-out: IC50 (concentration of drug required to kill 50% of cells)
Description: as §2

COc1cc(/C=C/C(=O)CC(=O)/C=C/c2ccc(O)c(OC)c2)ccc1O [CUR, bis(4-hydroxy-3-methoxyphenyl)-1,6-diene-3,5-dione]
colonies, percent of DMSO or CD control [1]: 74% | colonies, percent of DMSO or CD control [2]: 96% | IC50 [3]: 18.4 µM | IC50 [4]: 19.6 µM
